Assay results reported in patent publication US11096985B2, “Antimicrobial peptides, their variants and uses” (priority 2015, dated 2021).
Where a SMILES comes first, the peptide text is derived from it. [ ]: non-standard residue; d: D form.

What was measured:
S. aureus RN4220 = type: cell-based, Staphylococcus aureus; conditions: antibiotic sensitive strain S. aureus RN4220
Description: (§1) Minimum inhibition concentrations (MICs) were determined against Escherichia coli (ATCC 25922), Staphylococcus aureus (ATCC 25923), Klebsiella pneumoniae (ATCC 10031) and Pseudomonas aeruginosa (ATCC 27853). Also clinical strains of E. coli, K. pneumoniae, E. cloacae, P. aeruginosa, Serratia marcescens, Proteus mirabilis, S. pneumoniae, Acinetobacter baumannii, A. johnsonii and S. aureus were used for MICs assays. Additionally, clinical strains of yeast including Candida albicans, C. glabrata, C. parapsilosis and C. quillermondiae were used. The susceptibility of these microorganisms to Chain peptides were determined using micro broth dilution assay. Colonies of the respective microorganism from Muller Hinton (MH) agar plates incubated overnight were suspended in MH broth media and final concentration of microorganism was adjusted to 5.0×10^5 cfu/ml. An aliquot of 10 μl of each Chain peptide, or gentamicin, tetracycline as reference antibiotics were added in differing concentrations along with 90 μl of bacterial suspension to 96 well polypropylene plates and incubated at 37° C. for 20 to 24 hours. Concentrations of Chain peptides and reference antibiotics ranged from 0.125 to 128 μg/ml and the MICs were recorded as the lowest concentration with no visual growth of bacteria. Similarly, antifungal MICs were tested in Potato dextrose broth.
(§2) Peptides Chain 104, Chain 105, Chain 201, Chain 308, Chain 310 were tested against antibiotic-sensitive strains of S. aureus RN4220 and methicillin resistant strains of S. aureus COL (MRSA). Chain peptides comprising of either L- or D-form amino acids were tested against these bacteria, and the D-form peptides were found have better activity compared to L-form (Table 6). Synergistic activity of chain peptides along with Ertapenem (4 μg/ml) was tested to know whether it will influence the activity against MRSA strains. […] Chain 310 has the best antibacterial activity against the MRSA strains with a MIC of 0.06 & 0.03 μg/ml along with Ertapenem (4 μg/ml) for both forms of L and D-peptides (Table 6).

S. aureus COL (MRSA) = assay: Synergistic activity with Ertapenem (4 μg/ml) against MRSA, MIC; type: cell-based, Staphylococcus aureus; conditions: S. aureus COL, together with 4 μg/ml Ertapenem (synergistic activity)
Description: as §1, §2

[1] = system: clinical strains of C. quillermondiae; assay: MIC, clinical yeast strains, C. quillermondiae; type: cell-based; conditions: C. quillermondiae clinical yeast strain 1
Description: as §1
(§3) Clinical strains of yeasts including Candida albicans, C. glabrata, C. parapsilosis and C. quillermondiae were also tested with the 12 Chain peptides. The minimum inhibitory concentration (MICs) varied between these peptides and are presented in Tables 4a, 4b, 4c and 5a, 5b, 5c. Peptides Chain 105, 201 and 308 are broad spectrum antimicrobials with MICs between 0.5-32 μg/ml against all the bacteria and yeasts tested, except Serratia marcescens and Proteus mirabilis, against which the MICs were between 64-128 μg/ml. Peptide Chain 306 has narrow spectrum activity against E.coli at 1 μg/ml and for the rest of the bacterial strains at >32 μg/ml (FIG. 10).

[2] = system: clinical strains of Candida albicans; assay: MIC, clinical yeast strains, Candida albicans; type: cell-based; set-up: unit: μg/ml
Description: as §1, §3

[3] = system: clinical strains of C. parapsilosis; assay: MIC, clinical yeast strains, C. parapsilosis; type: cell-based, Candida parapsilosis; set-up: unit: μg/ml
Description: as §1, §3

[4] = system: clinical strains of C. glabrata; assay: MIC, clinical yeast strains, C. glabrata; type: cell-based, Candida glabrata; set-up: unit: μg/ml
Description: as §1, §3

[5] = Candida albicans clinical yeast strain 1
[6] = Candida albicans clinical yeast strain 2
[7] = Candida albicans clinical yeast strain 3
[8] = Candida albicans clinical yeast strain 4
[9] = Candida albicans clinical yeast strain 5
[10] = C. parapsilosis clinical yeast strain 1
[11] = C. parapsilosis clinical yeast strain 2
[12] = C. parapsilosis clinical yeast strain 3
[13] = C. parapsilosis clinical yeast strain 4
[14] = C. glabrata clinical yeast strain 1
[15] = C. glabrata clinical yeast strain 2
[16] = C. glabrata clinical yeast strain 3
[17] = C. glabrata clinical yeast strain 4

SMILES | Minimum inhibitory concentration (MIC), S. aureus RN4220 (S. aureus RN4220) [µg/mL] | Minimum inhibitory concentration (MIC), S. aureus COL + 4 μg/ml Ertapenem (S. aureus COL (MRSA)) [µg/mL] | Minimum inhibitory concentration [1] | Minimum inhibitory concentration [2, 5] | Minimum inhibitory concentration [2, 6] | Minimum inhibitory concentration [2, 7] | Minimum inhibitory concentration [2, 8] | Minimum inhibitory concentration [2, 9] | Minimum inhibitory concentration [3, 10] | Minimum inhibitory concentration [3, 11] | Minimum inhibitory concentration [3, 12] | Minimum inhibitory concentration [3, 13] | Minimum inhibitory concentration [4, 14] | Minimum inhibitory concentration [4, 15] | Minimum inhibitory concentration [4, 16] | Minimum inhibitory concentration [4, 17]
CC(C)C[C@@H](NC(=O)[C@@H](CCCCN)NC(=O)[C@@H](CCCCN)NC(=O)[C@@H](Cc1ccccc1)NC(=O)[C@@H](CC(C)C)NC(=O)[C@@H](Cc1c[nH]c2ccccc12)NC(=O)[C@@H](CCCNC(=N)N)NC(=O)[C@@H](Cc1c[nH]c2ccccc12)NC(=O)[C@@H](CCCCN)NC(=O)[C@@H](CCCNC(=N)N)NC(=O)[C@H](N)CCCCN)C(=O)O [310 D] (H-[dK][dR][dK][dW][dR][dW][dL][dF][dK][dK][dL]-OH) | >64 | <0.03 |  |  |  |  |  |  |  |  |  |  |  |  |  | 
CC[C@@H](C)[C@@H](NC(=O)[C@@H](Cc1c[nH]c2ccccc12)NC(=O)[C@H](N)CCCCN)C(=O)N[C@@H](C(=O)N[C@H](Cc1c[nH]c2ccccc12)C(=O)N[C@H](CCCNC(=N)N)C(=O)N[C@H](Cc1c[nH]c2ccccc12)C(=O)N[C@H](CCCNC(=N)N)C(=O)N[C@H](Cc1ccccc1)C(=O)N[C@H](CCCCN)C(=O)N[C@H](CCCNC(=N)N)C(=O)O)C(C)C [201 D] (H-[dK][dW][dI][dV][dW][dR][dW][dR][dF][dK][dR]-OH) | 2 | 1 |  |  |  |  |  |  |  |  |  |  |  |  |  | 
CC(C)C[C@H](NC(=O)[C@H](CC(C)C)NC(=O)[C@H](Cc1ccccc1)NC(=O)[C@H](Cc1c[nH]c2ccccc12)NC(=O)[C@H](CCCCN)NC(=O)[C@H](CC(C)C)NC(=O)[C@@H](N)CCCNC(=N)N)C(=O)N[C@@H](Cc1ccccc1)C(=O)N[C@@H](CCCNC(=N)N)C(=O)N[C@@H](CCCCN)C(=O)N[C@@H](CCCNC(=N)N)C(=O)O [Compound 308] (H-RLKWFLLFRKR-OH) | >64 | 0.5 |  |  |  |  |  |  |  |  |  |  |  |  |  | 
CC(C)C[C@@H](NC(=O)[C@@H](CCCCN)NC(=O)[C@@H](Cc1c[nH]c2ccccc12)NC(=O)[C@@H](CCCCN)NC(=O)[C@@H](C)NC(=O)[C@@H](Cc1c[nH]cn1)NC(=O)[C@@H](CC(C)C)NC(=O)[C@@H](CCCNC(=N)N)NC(=O)[C@@H](Cc1c[nH]c2ccccc12)NC(=O)[C@H](N)Cc1c[nH]c2ccccc12)C(=O)N[C@H](Cc1c[nH]c2ccccc12)C(=O)O [Chain109D] (H-[dW][dW][dR][dL][dH][dA][dK][dW][dK][dL][dW]-OH) |  |  | 128 | 128 | 128 | 128 | 128 | 128 | 128 | 128 | 128 | 8 | 128 | 128 | 16 | 64
C[C@@H]1[C@H](O)[C@@H](C)/C=C/C=C/C=C/C=C/C=C/C=C/C=C/[C@H](O[C@@H]2O[C@H](C)[C@@H](O)[C@H](N)[C@@H]2O)C[C@@H]2O[C@](O)(C[C@@H](O)C[C@@H](O)[C@H](O)CC[C@@H](O)C[C@@H](O)CC(=O)O[C@H]1C)C[C@H](O)[C@H]2C(=O)O [Amphotericin B, reference compound] |  |  | 2 | 2 | 0.5 | 2 | 2 | 2 | 2 | 2 | 2 | 2 | 4 | 4 | 2 | 4
